Tests used:
[1] = tested on: adult patients with advanced solid tumors or hematological malignancies; experiment: Cardiac adverse events (CAEs) in phase I/II clinical trials of single-agent plitidepsin; format: in vivo, human; conditions: for CAE group: Miscellaneous Cardiac Adverse Events / CAE group: Myocardial Injury / CAE group: Rhythm Abnormalities / CAE subgroup: Irregular Supraventricular Tachycardia / CAE subgroup: Other Myocardial Injury / CAE subgroup: Other Rhythm Abnormalities / CAE subgroup: Possible Ischemic Related / CAE subgroup: Regular Supraventricular Tachycardia / CAE: Acute myocardial infarction / CAE: Arrhythmia / CAE: Atrial fibrillation / CAE: Atrial flutter / CAE: Atrioventricular block / CAE: Cardiac amyloidosis / CAE: Cardiac failure / CAE: Cardiac troponin I increased / CAE: Cardiomegaly / CAE: Cardiomyopathy / CAE: Change in electrocardiogram / CAE: Chest pain / CAE: Ejection fraction decreased / CAE: Electrocardiogram QT prolonged / CAE: Electrocardiogram ST-T change / CAE: Heart rate irregular / CAE: Hypertension / CAE: Hypotension / CAE: Myocardial ischemia / CAE: Palpitations / CAE: Pericardial effusion / CAE: Sinus tachycardia / CAE: Supraventricular arrhythmia / CAE: Supraventricular tachycardia / CAE: Tachycardia / CAE: Ventricular hypokinesia / Total Adverse Events (cardiac): regardless of relationship
Description: Clinical trials included in this cardiac safety analysis were 4 phase I and 14 phase II studies evaluating plitidepsin as single-agent chemotherapy in a total of 578 adult patients (see details in Table 1). All available information on CAEs was retrieved from Pharma Mar’s internal Pharmacovigilance and Clinical Trials databases. The reviewed sources of information were Case Report Forms (CRFs), serious adverse event (SAE) reports, follow-up reports and supplementary reports attached or requested. Median follow-up was 12.0 months (95% CI, 7.6–13.8) for phase I trials and 12.3 months for phase II trials (95% CI, 11.0–13.7). Cutoff for data analysis was 20 November 2008.
All adverse events (AEs) with preferred terms of the Medical Dictionary for Regulatory Activities (MedDRA) that could be potentially classified as cardiac were evaluated. Additionally, events included in other systems as well in those patients with any vascular risk associated (prior history or within the trial) were also reviewed. Laboratory data were also reviewed in those cases with grade 3/4 creatine phosphokinase increase and/or troponin ([…] or troponin I) elevations. Patients’ prior history and baseline information were searched for any associated vascular risk (diabetes, hypercholesterolemia, hypertension, smoking, prior myocardial infarction or angina, etc.). All events retrieved using the aforementioned criteria were reviewed to identify and exclude from analysis potential CAEs due to obvious cancer-related symptoms (e.g., sinusal tachycardia in anemic patients, chest pain obviously related to tumor involvement of the chest). […] The information obtained was tabulated and a descriptive analysis is reported here.

[2] = Population PK exposure (Cmax, AUC0-28day) by CAE category; format: in vivo, human; conditions: whole blood, mean (SD)
Method: Pharmacokinetic (PK) data available from individual clinical trials (four phase I studies and nine phase II studies; see details in Table 1) and/or simulated data using population PK analyses were correlated with the occurrence of CAEs. In the individual studies, doses ranged from 0.13 to 8.00 mg/m^2, and were administered as 1 h or 24 h infusion weekly, 3 h or 24 h infusion bi-weekly, or 1 h infusion for 5 consecutive days every 3 weeks. To evaluate the potential relationship between blood plitidepsin concentrations and QTc and HR values, a total of 90 patients who had ECGs performed during treatment with plitidepsin and PK data during first infusion were analyzed. The plitidepsin concentration at the time when the ECG had been obtained was calculated using the whole blood plitidepsin concentration at the ECG times in which they were simulated taking the individual Bayesian PK parameters of the final population PK model and considering the real treatment history of each patient. In total, 411 patients and 5585 plitidepsin concentration measurements (including 2900 blood and 2685 plasma concentrations) were pooled in the population PK analysis. An open, 3-compartment disposition model with linear elimination and linear distribution from the central compartment to peripheral compartments was used to describe the PK of plitidepsin in plasma. Between and within subject variabilities were assumed to be log-normally distributed. PK exposure parameters (maximum concentration in plasma (Cmax) and area under the curve (AUC) from day 0 to day 28) and other dose-independent PK parameters (clearance, half-life, etc.) were used to evaluate the relationship between patient PK characteristics and the appearance of CAEs. For the statistical analysis of the relationship between the exposure parameters and the development or not of a CAE, a logistic regression model was used to analyze the incidence of the event.

plitidepsin
CAE group: Miscellaneous Cardiac Adverse Events ([1]; All studies (n = 578)): 6 (1.0%) Patients (%)
CAE group: Myocardial Injury ([1]; All studies (n = 578)): 17 (3.0%) Patients (%)
CAE group: Rhythm Abnormalities ([1]; All studies (n = 578)): 31 (5.4%) Patients (%)
CAE subgroup: Irregular Supraventricular Tachycardia ([1]; All studies (n = 578)): 15 (2.6%) Patients (%)
CAE subgroup: Other Myocardial Injury ([1]; All studies (n = 578)): 7 (1.2%) Patients (%)
CAE subgroup: Other Rhythm Abnormalities ([1]; All studies (n = 578)): 13 (2.2%) Patients (%)
CAE subgroup: Possible Ischemic Related ([1]; All studies (n = 578)): 10 (1.7%) Patients (%)
CAE subgroup: Regular Supraventricular Tachycardia ([1]; All studies (n = 578)): 6 (1.0%) Patients (%)
CAE: Acute myocardial infarction ([1]; All studies (n = 578)): 1 (0.2%) Patients (%)
CAE: Arrhythmia ([1]; All studies (n = 578)): 1 (0.2%) Patients (%)
CAE: Atrial fibrillation ([1]; All studies (n = 578)): 11 (1.9%) Patients (%)
CAE: Atrial flutter ([1]; All studies (n = 578)): 5 (0.9%) Patients (%)
CAE: Atrioventricular block ([1]; All studies (n = 578)): 1 (0.2%) Patients (%)
CAE: Cardiac amyloidosis ([1]; All studies (n = 578)): 1 (0.2%) Patients (%)
CAE: Cardiac failure ([1]; All studies (n = 578)): 3 (0.5%) Patients (%)
CAE: Cardiac troponin I increased ([1]; All studies (n = 578)): 1 (0.2%) Patients (%)
CAE: Cardiomegaly ([1]; All studies (n = 578)): 1 (0.2%) Patients (%)
CAE: Cardiomyopathy ([1]; All studies (n = 578)): 2 (0.3%) Patients (%)
CAE: Change in electrocardiogram ([1]; All studies (n = 578)): 1 (0.2%) Patients (%)
CAE: Chest pain ([1]; All studies (n = 578)): 4 (0.7%) Patients (%)
CAE: Ejection fraction decreased ([1]; All studies (n = 578)): 1 (0.2%) Patients (%)
CAE: Electrocardiogram QT prolonged ([1]; All studies (n = 578)): 5 (0.9%) Patients (%)
CAE: Electrocardiogram ST-T change ([1]; All studies (n = 578)): 1 (0.2%) Patients (%)
CAE: Heart rate irregular ([1]; All studies (n = 578)): 1 (0.2%) Patients (%)
CAE: Hypertension ([1]; All studies (n = 578)): 1 (0.2%) Patients (%)
CAE: Hypotension ([1]; All studies (n = 578)): 2 (0.3%) Patients (%)
CAE: Myocardial ischemia ([1]; All studies (n = 578)): 3 (0.5%) Patients (%)
CAE: Palpitations ([1]; All studies (n = 578)): 6 (1.0%) Patients (%)
CAE: Pericardial effusion ([1]; All studies (n = 578)): 3 (0.5%) Patients (%)
CAE: Sinus tachycardia ([1]; All studies (n = 578)): 1 (0.2%) Patients (%)
CAE: Supraventricular arrhythmia ([1]; All studies (n = 578)): 1 (0.2%) Patients (%)
CAE: Supraventricular tachycardia ([1]; All studies (n = 578)): 1 (0.2%) Patients (%)
CAE: Tachycardia ([1]; All studies (n = 578)): 3 (0.5%) Patients (%)
CAE: Ventricular hypokinesia ([1]; All studies (n = 578)): 1 (0.2%) Patients (%)
Total Adverse Events (cardiac) ([1]; All studies (n = 578)): 46 (8.0%) Patients (%)
CAE group: Miscellaneous Cardiac Adverse Events ([1]; Phase II studies (n = 364)): 3 (0.8%) Patients (%)
CAE group: Myocardial Injury ([1]; Phase II studies (n = 364)): 14 (3.8%) Patients (%)
CAE group: Rhythm Abnormalities ([1]; Phase II studies (n = 364)): 25 (6.9%) Patients (%)
CAE subgroup: Irregular Supraventricular Tachycardia ([1]; Phase II studies (n = 364)): 14 (3.8%) Patients (%)
CAE subgroup: Other Myocardial Injury ([1]; Phase II studies (n = 364)): 6 (1.6%) Patients (%)
CAE subgroup: Other Rhythm Abnormalities ([1]; Phase II studies (n = 364)): 13 (3.6%) Patients (%)
CAE subgroup: Possible Ischemic Related ([1]; Phase II studies (n = 364)): 8 (2.2%) Patients (%)
CAE subgroup: Regular Supraventricular Tachycardia ([1]; Phase II studies (n = 364)): 1 (0.3%) Patients (%)
CAE: Acute myocardial infarction ([1]; Phase II studies (n = 364)): 1 (0.3%) Patients (%)
CAE: Arrhythmia ([1]; Phase II studies (n = 364)): 1 (0.3%) Patients (%)
CAE: Atrial fibrillation ([1]; Phase II studies (n = 364)): 10 (2.7%) Patients (%)
CAE: Atrial flutter ([1]; Phase II studies (n = 364)): 5 (1.4%) Patients (%)
CAE: Atrioventricular block ([1]; Phase II studies (n = 364)): 1 (0.3%) Patients (%)
CAE: Cardiac amyloidosis ([1]; Phase II studies (n = 364)): 1 (0.3%) Patients (%)
CAE: Cardiac failure ([1]; Phase II studies (n = 364)): 2 (0.5%) Patients (%)
CAE: Cardiac troponin I increased ([1]; Phase II studies (n = 364)): 1 (0.3%) Patients (%)
CAE: Cardiomegaly ([1]; Phase II studies (n = 364)): 1 (0.3%) Patients (%)
CAE: Cardiomyopathy ([1]; Phase II studies (n = 364)): 2 (0.5%) Patients (%)
CAE: Change in electrocardiogram ([1]; Phase II studies (n = 364)): 1 (0.3%) Patients (%)
CAE: Chest pain ([1]; Phase II studies (n = 364)): 2 (0.5%) Patients (%)
CAE: Ejection fraction decreased ([1]; Phase II studies (n = 364)): 1 (0.3%) Patients (%)
CAE: Electrocardiogram QT prolonged ([1]; Phase II studies (n = 364)): 5 (1.4%) Patients (%)
CAE: Electrocardiogram ST-T change ([1]; Phase II studies (n = 364)): 1 (0.3%) Patients (%)
CAE: Heart rate irregular ([1]; Phase II studies (n = 364)): 1 (0.3%) Patients (%)
CAE: Hypertension ([1]; Phase II studies (n = 364)): 0 (0.0%) Patients (%)
CAE: Hypotension ([1]; Phase II studies (n = 364)): 2 (0.5%) Patients (%)
CAE: Myocardial ischemia ([1]; Phase II studies (n = 364)): 3 (0.8%) Patients (%)
CAE: Palpitations ([1]; Phase II studies (n = 364)): 6 (1.6%) Patients (%)
CAE: Pericardial effusion ([1]; Phase II studies (n = 364)): 1 (0.3%) Patients (%)
CAE: Sinus tachycardia ([1]; Phase II studies (n = 364)): 1 (0.3%) Patients (%)
CAE: Supraventricular arrhythmia ([1]; Phase II studies (n = 364)): 0 (0.0%) Patients (%)
CAE: Supraventricular tachycardia ([1]; Phase II studies (n = 364)): 0 (0.0%) Patients (%)
CAE: Tachycardia ([1]; Phase II studies (n = 364)): 0 (0.0%) Patients (%)
CAE: Ventricular hypokinesia ([1]; Phase II studies (n = 364)): 1 (0.3%) Patients (%)
Total Adverse Events (cardiac) ([1]; Phase II studies (n = 364)): 37 (10.2%) Patients (%)
Plitidepsin-related CAEs: chest pain ([1]; of 15 related CAEs): 2 n
Plitidepsin-related CAEs: palpitations ([1]; of 15 related CAEs): 4 n
Patients with a CAE who had a fatal outcome as a direct consequence ([1]; related, unrelated or unknown CAEs): None
Potentially life-threatening arrhythmias (e.g., ventricular arrhythmias) ([1]; within plitidepsin trials): did not occur
AUC0–28day ([2]; Irregular supraventricular tachycardia (n = 12), simulated): 3197 (3640) h·ng/mL
AUC0–28day ([2]; Miscellaneous Cardiac Adverse Event (n = 7), simulated): 2645 (1672) h·ng/mL
AUC0–28day ([2]; No Cardiac adverse Event (n = 375), simulated from population PK model): 3374 (4336) h·ng/mL
AUC0–28day ([2]; Other myocardial injury (n = 4), simulated): 4791 (6136) h·ng/mL
AUC0–28day ([2]; Possible ischemic related (n = 7), simulated): 3668 (1696) h·ng/mL
AUC0–28day ([2]; Regular supraventricular tachycardia (n = 6), simulated): 5277 (3997) h·ng/mL
AUC0–28day ([2]; Rhythm Abnormalities (n = 25), simulated): 3435 (3372) h·ng/mL

Source: publication PMC3131558, “Plitidepsin Has a Safe Cardiac Profile: A Comprehensive Analysis” (Marine Drugs, 2011)
